These results are taken from patent publication US20250188110A1, “SPECIFIC SMALL MOLECULE INHIBITORS THAT BLOCK KMT9 METHYLTRANSFERASE ACTIVITY AND FUNCTION” (ALBERT-LUDWIGS-UNIVERSITÄT FREIBURG, priority 2021, published 2025).

Test [1] has as its target T1, KMT9 (Homo sapiens, UniProt Q9Y5N5).
T1 sequence (Q9Y5N5 1-214): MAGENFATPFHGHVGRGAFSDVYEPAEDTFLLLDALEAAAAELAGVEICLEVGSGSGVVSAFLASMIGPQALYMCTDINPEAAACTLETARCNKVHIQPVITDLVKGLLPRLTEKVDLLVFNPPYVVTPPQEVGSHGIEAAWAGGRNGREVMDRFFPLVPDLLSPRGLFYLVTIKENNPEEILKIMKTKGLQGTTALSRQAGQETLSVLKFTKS
T1 sequence (Q9UI30 1-120 isoform Q9UI30-2 partner): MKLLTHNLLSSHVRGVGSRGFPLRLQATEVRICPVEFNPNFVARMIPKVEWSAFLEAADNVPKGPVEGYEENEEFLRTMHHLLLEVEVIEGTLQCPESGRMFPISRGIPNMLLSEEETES
Kind of test: KMT9 thermal shift assay (SyproOrange). Type of test: binding. Particulars: ΔTm; 500 µM compound, 2 μM KMT9, 5X SO; read-out: Thermal shift. The method in brief:
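ΔTm versus DMSO-only control is reported in bins (>20 K, 15–20 K, 10–15 K, ≤10 K), using Tm from Boltzmann sigmoidal fits of SyproOrange melt curves. KMT9 with compound in pH 8.5 BTP buffer containing MgCl2 and DTT was preincubated at 25° C, then ramped 1° C per 15 s up to 95° C.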

The target of test [2] is T1, KMT9. Put plainly: KMT9 methyltransferase inhibition assay, 3H-SAM scintillation (entries 1-154). Type of test: biochemical. Particulars: entries 1-154: 3H-SAM assay, 25 nM KMT9, 5 μM ETF1. The method in brief:
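Tritium transfer from SAM (0.3 μM 3H-SAM, 0.7 μM unlabelled, final) to 5 μM ETF1 fragment by 25 nM KMT9 was measured after 2 h at 30° C, pH 8.5. Precipitated peptide was collected on filters and scintillation counted; IC50 came from a four-parameter fit of inhibition normalised to controls.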

Test [3] concerns the target T1, KMT9. Kind of test: Microscale thermophoresis (MST) KMT9 binding. Particulars: microscale thermophoresis, His-tag labelled KMT9 (20 nM); read-out: MST. The method in brief:
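Kd from microscale thermophoresis: compound series against 20 nM His-KMT9 labelled via RED-Tris-NTA, buffer 25 mM HEPES (pH 7.5)/100 mM NaCl/1 mM DTT/0.05% Tween, 40% MST power, 100% LED. Reported as classes: A ≤10 nM, B >10–100 nM, C >100–1000 nM, D >1000 nM.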
(In general: In MST a laser heats a spot of the sample, and binding alters the fluorescence response.)

pIC50, pKd: −log10 of the molar value.

Take `COCCn1cc(-c2ccc(CCNCCCNC[C@H]3O[C@@H](n4cnc5c(N)ncnc54)[C@H](O)[C@@H]3O)cc2)nn1` [295 (192), (2R,3R,4S,5R)-2-(6-amino-9H-purin-9-yl)-5-(((3-((4-(1-(2-methoxyethyl)-1H-1,2,3-triazol-4-yl)phenethyl)amino)propyl)amino)methyl)tetrahydrofuran-3,4-diol]: the ΔTm at 500 µM in test [1] was not above 10 °C. Moreover, the negative-log IC50 (pIC50) (usually −log10 of the IC50, conventionally taken in molar units) in test [2] is less than 5.00. Moreover, in test [3], the pKd is 6.00 to 7.00.

As for `CNc1ncnc2c1ccn2[C@@H]1C[C@H](CN2CCCC23CCNCC3)[C@@H](O)[C@H]1O` [451 (323), (1S,2R,3R,5R)-3-((1,8-Diazaspiro[4.5]decan-1-yl)methyl)-5-(4-(methylamino)-7H-pyrrolo[2,3-d]pyrimidin-7-yl) cyclopentane-1,2-diol], the ΔTm at 500 µM in test [1] was not above 10 °C. Moreover, the negative-log IC50 (pIC50) in test [2] is less than 5.00. In addition, the pKd in test [3] is less than 6.00.

For the molecule `Nc1ncnc2c1c(Br)cn2[C@@H]1C[C@H](CNCCCNCCc2cccc(Oc3ccccc3)c2)[C@@H](O)[C@H]1O` [457 (329)], in test [1], the ΔTm at 500 µM is 15 to 20 °C. In test [2], this molecule had a pIC50 of 6.00 to 7.00. Further, the pKd in test [3] is 7.00 to 8.00.

Turning to `CNc1ncnc2c1ccn2[C@@H]1C[C@H](CNCCCNCc2ccc(Oc3ccccc3)cc2)[C@@H](O)[C@H]1O` [332 (236), (1R,2S,3R,5R)-3-(4-(methylamino)-7H-pyrrolo[2,3-d]pyrimidin-7-yl)-5-(((3-((4-phenoxybenzyl)amino)propyl)amino)methyl) cyclopentane-1,2-diol], in test [1], the ΔTm at 500 µM is not above 10 °C. The same molecule had a pIC50 in test [2] of less than 5.00. The pKd in test [3] was less than 6.00.

On to `Nc1ncnc2c1c(-c1ccn(Cc3ccccc3)n1)cn2[C@@H]1C[C@H](CNCCCNCCc2ccccc2)[C@@H](O)[C@H]1O` [477 (351), (1R,2S,3R,5R)-3-(4-Amino-5-(1-benzyl-1H-pyrazol-3-yl)-7H-pyrrolo[2,3-d]pyrimidin-7-yl)-5-(((3-(phenethylamino)propyl)amino)methyl) cyclopentane-1,2-diol], for which the ΔTm at 500 µM in test [1] lay in the range of 15 to 20 °C. In test [2], this molecule had a pIC50 of 5.00 to 6.00. Moreover, the pKd in test [3] is 7.00 to 8.00.

For the molecule `CNc1ncnc2c1ccn2[C@@H]1C[C@H](CSCCN)[C@@H](O)[C@H]1O` [430 (302), (1S,2R,3S,5R)-3-(((2-Aminoethyl)thio)methyl)-5-(4-(methylamino)-7H-pyrrolo[2,3-d]pyrimidin-7-yl) cyclopentane-1,2-diol], in test [1], the ΔTm at 500 µM is not above 10 °C. In test [2], the negative logarithm of the IC50 (pIC50) was less than 5.00. Moreover, the pKd in test [3] is less than 6.00.

`Cn1cc(-c2cn([C@@H]3C[C@H](CNCCCNCCc4ccccc4)[C@@H](O)[C@H]3O)c3ncnc(N)c23)cn1` [478 (352), (1R,2S,3R,5R)-3-(4-Amino-5-(1-methyl-1H-pyrazol-4-yl)-7H-pyrrolo[2,3-d]pyrimidin-7-yl)-5-(((3-(phenethylamino)propyl)amino)methyl) cyclopentane-1,2-diol]: the ΔTm at 500 µM in test [1] was in the range of 15 to 20 °C. The molecule also gave a negative logarithm of the IC50 (pIC50) in test [2] of 5.00 to 6.00. Also, the pKd in test [3] is 7.00 to 8.00.

With `CNc1ncnc2c1ccn2[C@@H]1C[C@H](CNCC2CNCCO2)[C@@H](O)[C@H]1O` (mixture of isomers) [435 (307), (1R,2S,3R,5R)-3-(4-(methylamino)-7H-pyrrolo[2,3-d]pyrimidin-7-yl)-5-(((morpholin-2-ylmethyl)amino)methyl) cyclopentane-1,2-diol and (1R,2S,3R,5S)-3-(4-(methylamino)-7H-pyrrolo[2,3-d]pyrimidin-7-yl)-5-(((morpholin-2-ylmethyl)amino)methyl) cyclopentane-1,2-diol], in test [1], the ΔTm at 500 µM is not above 10 °C. The molecule also had a negative logarithm of the IC50 (pIC50) in test [2] of less than 5.00. For the same molecule, the pKd in test [3] is less than 6.00.

For the molecule `NC[C@H]1O[C@@H](n2cc3c4c(ncnc42)NCCC3)[C@H](O)[C@@H]1O` [416 (287), (2R,3S,4R,5R)-2-(aminomethyl)-5-(6,7,8,9-tetrahydro-2H-2,3,5,6-tetraazabenzo[cd]azulen-2-yl) tetrahydrofuran-3,4-diol], the ΔTm at 500 µM in test [1] is not above 10 °C. Further, the pIC50 in test [2] is less than 5.00. Besides, the pKd in test [3] was less than 6.00.

`CNc1ncnc2c1ccn2[C@@H]1C[C@H](CN2CCCCC23CCNC3)[C@@H](O)[C@H]1O` (stereo partly drawn) [448 (320), (1S,2R,3R,5R)-3-{2,6-diazaspiro[4.5]decan-6-ylmethyl}-5-[4-(methylamino)pyrrolo[2,3-d]pyrimidin-7-yl]cyclopentane-1,2-diol]: the ΔTm at 500 µM in test [1] is not above 10 °C. The negative logarithm of the IC50 (pIC50) in test [2] was less than 5.00. In addition, the pKd in test [3] was less than 6.00.

As for `Nc1ncnc2c1c(Br)cn2[C@@H]1C[C@H](CNCCCNCCc2ccc(C(F)(F)F)cc2)[C@@H](O)[C@H]1O` [336 (240), (1R,2S,3R,5R)-3-(4-amino-5-bromo-7H-pyrrolo[2,3-d]pyrimidin-7-yl)-5-(((3-((4-(trifluoromethyl)phenethyl)amino)propyl)amino)methyl) cyclopentane-1,2-diol], the ΔTm at 500 µM in test [1] was in the range of 15 to 20 °C. Further, the negative logarithm of the IC50 (pIC50) in test [2] is 6.00 to 7.00. Besides, the pKd in test [3] was 6.00 to 7.00.

With `Nc1ncnc2c1c(-c1nccs1)cn2[C@@H]1C[C@H](CNCCCNCCc2ccc(F)cc2)[C@@H](O)[C@H]1O` [Compound 602, (1R,2S,3R,5R)-3-[4-Amino-5-(1,3-thiazol-2-yl)pyrrolo[2,3-d]pyrimidin-7-yl]-5-{[(3-{[2-(4-fluorophenyl)ethyl]amino}propyl)amino]methyl}cyclopentane-1,2-diol], in test [1], the ΔTm at 500 µM was in the range of 15 to 20 °C. Also, the negative logarithm of the IC50 (pIC50) in test [2] was 6.00 to 7.00. For the same molecule, in test [3], the pKd was 7.00 to 8.00.

Take `Nc1ncnc2c1c(-c1ccccc1)cn2[C@@H]1C[C@H](CNCCCNCCc2ccccc2)[C@@H](O)[C@H]1O` [466 (340), (1R,2S,3R,5R)-3-{4-amino-5-phenylpyrrolo[2,3-d]pyrimidin-7-yl}-5-[({3-[(2-phenylethyl)amino]propyl}amino)methyl]cyclopentane-1,2-diol]: the ΔTm at 500 µM in test [1] was in the range of 10 to 15 °C. In test [2], this molecule gave a pIC50 of 6.00 to 7.00. For the same molecule, the pKd in test [3] is 6.00 to 7.00.

As for `Nc1ncnc2c1c(Br)cn2[C@@H]1C[C@H](CNC[C@H]2CCCNC2)[C@@H](O)[C@H]1O` [455 (327), (1R,2S,3R,5R)-3-(4-Amino-5-bromo-7H-pyrrolo[2,3-d]pyrimidin-7-yl)-5-(((((S)-piperidin-3-yl)methyl)amino)methyl)cyclopentane-1,2-diol], the ΔTm at 500 µM in test [1] fell in the range of 10 to 15 °C. Further, the negative-log IC50 (pIC50) in test [2] is less than 5.00. Also, the pKd in test [3] was less than 6.00.

With `Nc1ncnc2c1c(-c1ncn[nH]1)cn2[C@@H]1C[C@H](CNCCCNCCc2ccccc2)[C@@H](O)[C@H]1O` [475 (349), (1R,2S,3R,5R)-3-(4-amino-5-(1H-1,2,4-triazol-5-yl)-7H-pyrrolo[2,3-d]pyrimidin-7-yl)-5-(((3-(phenethylamino)propyl)amino)methyl) cyclopentane-1,2-diol], in test [1], the ΔTm at 500 µM fell in the range of 15 to 20 °C. For the same molecule, the pIC50 in test [2] is 6.00 to 7.00. Besides, the pKd in test [3] is 7.00 to 8.00.

As for `CNc1ncnc2c1ccn2[C@@H]1C[C@H](CNCC(F)(F)CNCCc2ccc3ccccc3c2)[C@@H](O)[C@H]1O` [357 (261), (1S,2R,3R,5R)-3-(((2,2-difluoro-3-((2-(naphthalen-2-yl)ethyl)amino)propyl)amino)methyl)-5-(4-(methylamino)-7H-pyrrolo[2,3-a]pyrimidin-7-yl) cyclopentane-1,2-diol], in test [1], the ΔTm at 500 µM was not above 10 °C. The pIC50 in test [2] is less than 5.00. Also, the pKd in test [3] is less than 6.00.

Consider `Nc1ncnc2c1ncn2[C@@H]1O[C@H](C(=O)NCCCNCCc2ccccc2)[C@@H](O)[C@H]1O` [301 (198), (2S,3S,4R,5R)-5-(6-amino-9H-purin-9-yl)-3,4-dihydroxy-N-(3-(phenethylamino)propyl) tetrahydrofuran-2-carboxamide], for which the ΔTm at 500 µM in test [1] was not above 10 °C. The molecule also had a pIC50 in test [2] of less than 5.00. Further, the pKd in test [3] is 6.00 to 7.00.

With `Nc1ncnc2c1ncn2[C@@H]1O[C@H](CNCCCNCc2ccc3ccccc3c2)[C@@H](O)[C@H]1O` [323 (226), (2R,3R,45,5R)-2-(6-amino-9H-purin-9-yl)-5-(((3-((naphthalen-2-ylmethyl)amino)propyl)amino)methyl)tetrahydrofuran-3,4-diol], in test [1], the ΔTm at 500 µM was not above 10 °C. For the same molecule, the pIC50 in test [2] was less than 5.00. Moreover, the pKd in test [3] is less than 6.00.

Take `CNc1ncnc2c1ccn2[C@@H]1C[C@H](CNC(=O)C2CCCNC2)[C@@H](O)[C@H]1O` (stereo partly drawn) [418 (289), N-(((1R,2R,3S,4R)-2,3-dihydroxy-4-(4-(methylamino)-7H-pyrrolo[2,3-d]pyrimidin-7-yl)cyclopentyl)methyl) piperidine-3-carboxamide]: the ΔTm at 500 µM in test [1] was not above 10 °C. In addition, in test [2], the negative logarithm of the IC50 (pIC50) is less than 5.00. Moreover, the pKd in test [3] was less than 6.00.
